The experiment has as its system Insig1 S207/Insig2 S151 phosphorylation. Description: Immunoblot of Insig1 S207/Insig2 S151 phosphorylation, Huh7. The format is cell-based, human. Conditions: Huh7 cells, peptide 7.5 or 15 µM 1 h before IGF1 100 ng/mL. Here is the method: Figure 1 The Insig1/2 loop 1 peptide binds to S90‐phosphorylated PCK1 and blocks PCK1‐mediated SREBP activation and tumor cell proliferation. Immunoblotting analyses were performed using the indicated antibodies; representative results from three independent experiments are shown (IP, immunoprecipitation; WB, western blot). a) Huh7 cells expressing various Insig1 (top) or Insig2 (bottom) truncation mutants were treated with or without IGF1 (100 ng mL^−1) for 1 h. b,c) Biolayer interferometry assays (Sartorius Octet) were employed to measure the binding affinity of Insig1/2 loop 1 peptide to GST‐PCK1 or GST‐PCK1 pS90 proteins. […] Statistical significance was determined by one‐way analysis of variance (ANOVA). g) Following pretreatment with Insig1/2 loop 1 peptide (15 µM) and IGF1 stimulation (100 ng mL^−1, 8 h), Huh7 cells were subjected to immunofluorescence analysis (scale bar: 10 µm). h) Quantitative PCR analysis of SREBP1 target gene GPAM in Huh7 cells pretreated with Insig1/2 loop 1 peptide (15 µM) and stimulated with IGF1 (100 ng mL^−1) for 10 h. […] Statistical significance was determined by one‐way analysis of variance (ANOVA). i) Quantitative PCR analysis of SREBP1 target gene FASN in Huh7 cells pretreated with Insig1/2 loop 1 peptide (15 µM) and stimulated with IGF1 (100 ng mL^−1) for 10 h. […]

For the sequence “RKKRRQRRRLYPCIDSHLGEPHKFKRE [Insig1/2 loop 1 peptide]”, the “Insig1 S207/Insig2 S151 phosphorylation” value is reported as “markedly inhibited”.

Values taken from article PMC12677653, “Inhibition of Tumor Lipogenesis and Growth by Peptide‐Based Targeting of SREBP Activation” (Advanced Science, 2025).
